Reference: patent US9981983B2, “Thienopyranones as kinase inhibitors” (SignalRx Pharmaceuticals, Inc., priority 2008, dated 2018)
Like-named read-outs stand apart in the source and are kept apart here.

What was measured:
Assay type in all cases: cell-based
[1] = system: pAKT serine 473 level in PC3 cells; test: pAKT status in IGF-1 stimulated PC3 cells (Ser473 pAKT ELISA); conditions: Homo sapiens, PC-3; IGF-1 stimulated PC3 cells; read-out: PC3 pAKT IC50
Procedure: PC3 cells were obtained from the American Type Culture Collection (ATCC, Manassas, Va., Cat.# CRL-1435). Two million cells from the prostate cancer line PC3 were placed into 6 cm culture dishes and allowed to grow in complete RPMI 1640 media (Invitrogen, Carlsbad, Calif., Cat.#22400-105) with 10% fetal bovine serum (Invitrogen, Carlsbad, Calif., Cat.#10438-026). After this time period the cells were serum starved for 5 hours followed by application of the test compound. Test compound was added as a DMSO (dimethyl sulfoxide) solution such that the final DMSO concentration in the cell media was less than or equal to 0.2% by volume After 30 minutes of exposure the growth factor stimulant, human IGF-1 (PeproTech, Inc., Rocky Hill, N.J., Cat.#100-11), was added to a final concentration of 0.1 μg/ml in each well. After 30 minutes of IGF-1 exposure, cells were removed from the media and cell lysates were prepared using RIPA Lysis buffer (Upstate, Lake Placid, N.Y., Cat.#20-188), keeping on ice. The pAKT serine 473 level was measured in duplicate samples of the cell lysates using commercially available assays such as the Pathscan® Sandwich ELISA kit for Ser473 pAKT (Cell Signaling, Danvers, Mass., Cat.#7160). A SpectraMax Plus spectrophotometric plate reader (Molecular Devices, Sunnydale, Calif.) was used to measure the optical density signal for pAKT at 450 nm (OD450 nm). The pAKT OD450 nm readings were normalized by total protein amount in the cell lysates determined by standard methods.
Concentrations of test compounds required to inhibit IGF stimulated pAKT levels to 50% of maximum levels in PC3 cells (termed DM50 for decreased maximum 50%) were calculated by inputting the dose responses in the software package GraphPad Prism4 (GraphPad Software, Inc., San Diego, Calif.).
By these methods a number of compounds of the invention were evaluated and the concentration needed to reduce the detectable pAKT to 50% of the maximal uninhibited signal was calculated. These values (in μMolar units) are listed in Table 8 under the column heading PC3 pAKT IC50 (μMolar).

PC3 cells = test: PC3 prostate cancer cell proliferation (WST); conditions: Homo sapiens, PC-3; 72 hours; read-out: IC50 PC3 Proliferation
A549 (Lung) = test: Cell proliferation MTS assay, A549; conditions: Homo sapiens, 72 hours
Procedure: (§1) All cell lines were obtained from ATCC and cultured and plated according to ATCC recommendations. Cells were cultured in complete culture media containing 10% heat-inactivated fetal bovine serum (FBS, Mediatech, Inc.). For adherent cell lines, once cells reached 70% confluency, they were trypsinized and resuspended in phenol red free RPMI media (Mediatech, Inc.) plus 10% heat-inactivated FBS (assay buffer) and 100 μL aliquots were plated into each well of 96-well microtiter plates at a final density of 1,000-2,000 cells/well. Cells were incubated overnight at 37° C. in 5% CO2, and treated with test compounds on the next day. For suspension cell lines, cells were resuspended in assay buffer, plated into 96-well microtiter plates at a density of 10^4-10^5 cells/well/100 μL, and treatment was started on the same day. Cells were treated with vehicle (DMSO) and test compounds for 72 hours at concentration of 100, 70, 40, 20, 10, 5, 2.5, 1.25, 0.5 and 0.2 μM in four replicates at 37° C. in 5% CO2.

DU145 (Prostate) = test: Cell proliferation MTS assay, DU145; conditions: Homo sapiens, DU-145, 72 hours
Procedure: as §1

HT29 (Colon) = test: Cell proliferation MTS assay, HT29; conditions: Homo sapiens, HT-29, 72 hours
Procedure: as §1

K562 (CML) = test: Cell proliferation MTS assay, K562; conditions: Homo sapiens, 72 hours
Procedure: as §1

[2] = system: HUVEC (Endothelial-noncancer); test: Cell proliferation MTS assay, HUVEC; conditions: Homo sapiens, 72 hours
Procedure: as §1

[3] = system: AKT Ser473 phosphorylation in PC3 (prostate cancer) Cell Line; test: pAKT Ser473 ELISA in PC3 cells stimulated by Bv8, VEGF, IGF; conditions: Homo sapiens, PC-3, PC3, read-out: Concentration Required to Inhibit pAKT to Half-maximal Levels
Procedure: This was followed by the addition of IGF, VEGF and Bv8 to 0.1 μg/mL, 0.1 μg/mL and 2.5 μg/mL respectively for another 30 minutes before harvesting the cells and making cell lysates with RIPA buffer keeping on ice, pAKT levels were measured in duplicate samples with Cell Signaling's Ser473 pAKT ELISA kit. Optical density plate readings of pAKT levels were made at 450 nm (OD450 nm) and were normalized by total protein amount of the cell lysates. The dose of compound at which pAKT levels are reduced to 50% of the non-treatment level was calculated using GraphPad Prism4 software and is listed in Tables 4 and 5 below.

O=c1cc(N2CCOCC2)oc2c(-c3ccc4c(c3)OCCO4)csc12 [Compound 28, 3-(2,3-dihydrobenzo[b][1,4]dioxin-6-yl)-5-morpholino-7H-thieno[3,2-b]pyran-7-one]
IC50 [1]: 161 to 440 nM | IC50 (PC3 cells): 1300 to 1910 nM | IC50 (A549 (Lung)): 2540 nM | IC50 (DU145 (Prostate)): 2070 nM | IC50 (HT29 (Colon)): 2400 nM | IC50 (K562 (CML)): 3200 nM | IC50 [2]: 1230 nM | IC50 ([3]; stimulant Bv8): 116 nM | IC50 ([3]; stimulant IGF): 888 nM | IC50 ([3]; stimulant PBS): 229 nM | IC50 ([3]; stimulant VEGF): 152 nM
